The target in one data set is T1, PngR (Pseudo-nitzschia granii, UniProt A0A0A7RP02).
T1 construct: gene RHO; full length, E. coli codon-optimised, C-terminal His6 tag (pET21a NdeI-XhoI), expressed in E. coli BL21(DE3) with all-trans retinal, purified in DDM
The experiment in a line: HPLC of retinal oxime isomers from purified holoprotein; absorption spectrum. The conditions noted are these: covalent; chromophore; light- and dark-adapted samples; 50 mM Tris-HCl pH 7.0, 1 M NaCl, 0.05% DDM. The data set is classed as binding.

For the next data set, the target named is Asp91 (position 91, …). Description: UV-vis. The conditions noted are these: room temperature (approximately 25°C), 1 M NaCl, Buffer A: 50 mM Tris-HCl, 0.05% (w/v) DDM, pH adjusted by addition of HCl, Dark/ground (unphotolysed) state with all-trans retinal, measured under room light, DDM-solubilised, folded (reversibility checked).

As for `CC1=C(/C=C/C(C)=C/C=C/C(C)=C/C=O)C(C)(C)CCC1` [all-trans retinal], the “HPLC of retinal oxime isomers from purified holoprotein; absorption spectrum” value on PngR is “In light- and dark-adapted samples, the isomeric state of retinal was predominantly all-trans”.

B1: PngR (Pseudo-nitzschia granii rhodopsin, xanthorhodopsin-like light-driven proton pump) (Pseudo-nitzschia granii) (protein)
chain: MVTANQFTIVYDVLSFSLATMMATTIFLWMRVPSVHEKYKSALIISGLVTFIAAYHYLRIFNSWTEAYEWTAEGELSATASPFNDAYRYMDWLLTVPLLLIEIILVMKLPADESRSKATTLGIASAAMIAIGYPGELAMSDDSLGTRWVYWIGAMLPFLYIVQTLLVGLNDATQSEADPAIRDLIKGVQWWTVISWCTYPVVYVFPMMGITGTNAIVGIQLGYSVSDIISKCGVGLMIYQITIAKSYALKKGNEETPLYG
On to B1, for which, in the data set with Asp91 (position 91, …), the pKa result is “approximately 5.0”.
